Data published in ChEMBL document CHEMBL4627310, “Design, synthesis and biological evaluation of 3-nitro-1,8-naphthalimides as potential antitumor agents” (Bioorg Med Chem Lett, 2020).
Calls of active or inactive are those of the source. The rule behind the calls is not given here.

Legend:
T-24 [1] = assay: Induction of cell cycle arrest in human T24 cells assessed as upregulation of Wee1 expression at 2 to 8 uM by Western blot analysis; type: functional, cell-based
HepG2 [2] = assay: Anticancer activity against human HepG2 cells xenografted in mouse assessed as tumor growth inhibition by measuring T/C ratio at 5 mg/kg measured at day 14 relative to control; type: functional
T-24 [3] = assay: Induction of cell cycle arrest in human T24 cells assessed as upregulation of cyclin-B1 expression at 2 to 8 uM by Western blot analysis; type: functional, cell-based
T-24 [4] = assay: Induction of apoptosis in human T24 cells assessed as cell budding by AO/EB staining based assay; type: functional
HepG2 [5] = assay: Anticancer activity against human HepG2 cells xenografted in mouse assessed as tumor inhibition rate at 15 mg/kg measured at day 14 relative to control; type: functional; conditions: HepG2, 336 h
T-24 [6] = assay: Induction of apoptosis in human T24 cells assessed as necrotic cells at 4.13 uM by AnnexinV/propidium iodide staining based flow cytometry (reference value: 0.1%); type: functional
DNA [7] = assay: Induction of DNA damage in human T24 cells assessed as inhibition of DNA replication at 10 uM measured after 24 hrs by EdU incorporation assay; type: cell-based; conditions: T-24
T-24 [8] = assay: Anticancer activity against human T24 cells xenografted in mouse assessed as tumor growth inhibition by measuring T/C ratio at 15 mg/kg measured at day 14 relative to control; type: functional
SMMC-7721 = assay: Antiproliferative activity against human SMMC7721 cells assessed as cell growth inhibition measured after 48 hrs by MTT assay; type: functional, cell-based; conditions: SMMC-7721, 48 h
A549 = assay: Antiproliferative activity against human A549 cells assessed as cell growth inhibition measured after 48 hrs by MTT assay; type: functional, cell-based; conditions: A549, 48 h
T-24 [9] = assay: Induction of morphological changes in human T24 cells by AO/EB staining based assay; type: functional, cell-based
T-24 [10] = assay: Induction of apoptosis in human T24 cells by AnnexinV/propidium iodide staining based flow cytometry; type: functional, cell-based
T-24 [11] = assay: Induction of apoptosis in human T24 cells assessed as necrotic cells at 8.26 uM by AnnexinV/propidium iodide staining based flow cytometry (reference value: 0.1%); type: functional
T-24 [12] = assay: Cell cycle arrest in human T24 cells assessed as accumulation at G2/M phase at 4.13 uM measured after 24 hrs by propidium iodide staining based fluorescence analysis (reference value: 10.16%); type: functional
T-24 [13] = assay: Induction of apoptosis in human T24 cells assessed as membrane blebbing by AO/EB staining based assay; type: functional, cell-based
T-24 [14] = assay: Antiproliferative activity against human T24 cells assessed as cell growth inhibition measured after 48 hrs by MTT assay; type: functional, cell-based; conditions: T-24, 48 h
T-24 [15] = assay: Cell cycle arrest in human T24 cells assessed as accumulation at S phase at 8.26 uM measured after 24 hrs by propidium iodide staining based fluorescence analysis (reference value: 23.67%); type: functional
T-24 [16] = assay: Induction of cell cycle arrest in human T24 cells assessed as upregulation of gammaH2AX expression at 2 to 8 uM by Western blot analysis; type: functional, cell-based
T-24 [17] = assay: Cell cycle arrest in human T24 cells assessed as accumulation at G2/M phase at 2.06 uM measured after 24 hrs by propidium iodide staining based fluorescence analysis (reference value: 10.16%); type: functional
T-24 [18] = assay: Induction of apoptosis in human T24 cells assessed as live cells at 8.26 uM by AnnexinV/propidium iodide staining based flow cytometry (reference value: 99.1%); type: functional
T-24 [19] = assay: Induction of cell cycle arrest in human T24 cells assessed as upregulation of cdc-2Ty expression at 2 to 8 uM by Western blot analysis; type: functional, cell-based
T-24 [20] = assay: Induction of apoptosis in human T24 cells assessed as late apoptotic cells at 4.13 uM by AnnexinV/propidium iodide staining based flow cytometry (reference value: 0%); type: functional
T-24 [21] = assay: Induction of apoptosis in human T24 cells assessed as […] of Bax expression at 2 to 8 uM by Western blot analysis; type: functional, cell-based
T-24 [22] = assay: Cell cycle arrest in human T24 cells assessed as accumulation at G2/M phase at 8.26 uM measured after 24 hrs by propidium iodide staining based fluorescence analysis (reference value: 10.16%); type: functional
DNA [23] = assay: Induction of Escherichia coli supercoiled circular pBR322 DNA cleavage at 20 to 100 uM by gel electrophoresis mobility shift assay; type: nucleic-acid assay
L02 = assay: Cytotoxicity against human HL7702 cells assessed as cell growth inhibition measured after 48 hrs by MTT assay; type: cell-based; conditions: L02, 48 h
T-24 [24] = assay: Anticancer activity against human T24 cells xenografted in mouse assessed as tumor growth inhibition by measuring T/C ratio at 5 mg/kg measured at day 14 relative to control; type: functional
T-24 [25] = assay: Induction of cell cycle arrest in human T24 cells assessed as upregulation of p21 expression at 2 to 8 uM by Western blot analysis; type: functional, cell-based
DNA [26] = assay: Binding affinity to supercoiled circular Escherichia coli pBR322 DNA assessed as DNA intercalation at 20 to 100 uM by gel electrophoresis mobility shift assay; type: nucleic-acid assay
[27] = Toxicity in mouse xenografted with human HepG2 cells assessed as adverse effect at 5 to 15 mg/kg; type: organism-based; conditions: in vivo
T-24 [28] = assay: Cell cycle arrest in human T24 cells assessed as accumulation at G1 phase at 8.26 uM measured after 24 hrs by propidium iodide staining based fluorescence analysis (reference value: 66.18%); type: functional
HepG2 [29] = assay: Anticancer activity against human HepG2 cells xenografted in mouse assessed as tumor inhibition rate at 5 mg/kg measured at day 14 relative to control; type: functional; conditions: HepG2, 336 h
[30] = target: T1, DNA topoisomerase 1 (Homo sapiens) (UniProt P11387); assay: Inhibition of topoisomerase 1 (unknown origin) mediated DNA relaxation at 20 uM by gel electrophoresis assay
T1 sequence (whole entry): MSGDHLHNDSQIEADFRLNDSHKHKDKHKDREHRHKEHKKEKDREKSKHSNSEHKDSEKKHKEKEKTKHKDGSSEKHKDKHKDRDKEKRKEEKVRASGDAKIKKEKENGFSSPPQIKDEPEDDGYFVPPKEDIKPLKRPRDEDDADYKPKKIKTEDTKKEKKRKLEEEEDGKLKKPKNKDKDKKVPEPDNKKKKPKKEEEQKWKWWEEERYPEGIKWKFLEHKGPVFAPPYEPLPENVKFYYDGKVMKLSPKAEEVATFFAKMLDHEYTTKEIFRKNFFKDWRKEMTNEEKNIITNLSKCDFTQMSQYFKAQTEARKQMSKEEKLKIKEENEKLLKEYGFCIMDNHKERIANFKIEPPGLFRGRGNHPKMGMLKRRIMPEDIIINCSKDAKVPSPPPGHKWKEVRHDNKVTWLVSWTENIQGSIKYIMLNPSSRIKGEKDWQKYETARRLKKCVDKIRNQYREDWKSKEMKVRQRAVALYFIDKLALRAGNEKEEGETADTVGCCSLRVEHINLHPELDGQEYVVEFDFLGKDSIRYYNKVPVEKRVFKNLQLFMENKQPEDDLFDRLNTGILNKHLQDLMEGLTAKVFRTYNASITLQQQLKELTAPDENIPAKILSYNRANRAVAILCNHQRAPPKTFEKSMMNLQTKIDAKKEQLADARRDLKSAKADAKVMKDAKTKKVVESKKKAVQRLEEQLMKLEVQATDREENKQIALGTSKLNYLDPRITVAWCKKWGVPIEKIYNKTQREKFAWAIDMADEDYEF

[31] = Toxicity in mouse xenografted with human HepG2 cells assessed as effect on body weight at 5 to 15 mg/kg; type: organism-based; conditions: in vivo
T-24 [32] = assay: Induction of apoptosis in human T24 cells assessed as late apoptotic cells at 2.06 uM by AnnexinV/propidium iodide staining based flow cytometry (reference value: 0%); type: functional
HepG2 [33] = assay: Anticancer activity against human HepG2 cells xenografted in mouse assessed as tumor growth inhibition by measuring T/C ratio at 15 mg/kg measured at day 14 relative to control; type: functional
T-24 [34] = assay: Cell cycle arrest in human T24 cells assessed as accumulation at G1 phase at 2.06 uM measured after 24 hrs by propidium iodide staining based fluorescence analysis (reference value: 66.18%); type: functional
T-24 [35] = assay: Induction of apoptosis in human T24 cells assessed as early apoptotic cells at 4.13 uM by AnnexinV/propidium iodide staining based flow cytometry (reference value: 0.7%); type: functional
T-24 [36] = assay: Cell cycle arrest in human T24 cells assessed as accumulation at S phase at 2.06 uM measured after 24 hrs by propidium iodide staining based fluorescence analysis (reference value: 23.67%); type: functional
T-24 [37] = assay: Induction of apoptosis in human T24 cells assessed as early apoptotic cells at 2.06 uM by AnnexinV/propidium iodide staining based flow cytometry (reference value: 0.7%); type: functional
[38] = Toxicity in mouse xenografted with human T24 cells assessed as adverse effect at 5 to 15 mg/kg; type: organism-based, T-24; conditions: in vivo
T-24 [39] = assay: Induction of apoptosis in human T24 cells assessed as early apoptotic cells at 8.26 uM by AnnexinV/propidium iodide staining based flow cytometry (reference value: 0.7%); type: functional
T-24 [40] = assay: Induction of apoptosis in human T24 cells assessed as live cells at 4.13 uM by AnnexinV/propidium iodide staining based flow cytometry (reference value: 99.1%); type: functional
T-24 [41] = assay: Cell cycle arrest in human T24 cells assessed as accumulation at G1 phase at 4.13 uM measured after 24 hrs by propidium iodide staining based fluorescence analysis (reference value: 66.18%); type: functional
T-24 [42] = assay: Induction of apoptosis in human T24 cells assessed as necrotic cells at 2.06 uM by AnnexinV/propidium iodide staining based flow cytometry (reference value: 0.1%); type: functional
HepG2 [43] = assay: Antiproliferative activity against human HepG2 cells assessed as cell growth inhibition measured after 48 hrs by MTT assay; type: functional, cell-based; conditions: HepG2, 48 h
[44] = Toxicity in mouse xenografted with human T24 cells assessed as effect on body weight at 5 to 15 mg/kg; type: organism-based, T-24; conditions: in vivo
T-24 [45] = assay: Induction of apoptosis in human T24 cells assessed as live cells at 2.06 uM by AnnexinV/propidium iodide staining based flow cytometry (reference value: 99.1%); type: functional
T-24 [46] = assay: Cell cycle arrest in human T24 cells assessed as accumulation at S phase at 4.13 uM measured after 24 hrs by propidium iodide staining based fluorescence analysis (reference value: 23.67%); type: functional
T-24 [47] = assay: Anticancer activity against human T24 cells xenografted in mouse assessed as tumor inhibition rate at 5 mg/kg measured at day 14 relative to control; type: functional; conditions: T-24, 336 h
SK-OV-3 = assay: Antiproliferative activity against human SKOV3 cells assessed as cell growth inhibition measured after 48 hrs by MTT assay; type: functional, cell-based; conditions: SK-OV-3, 48 h
T-24 [48] = assay: Induction of apoptosis in human T24 cells assessed as […] of Bcl-2 expression at 2 to 8 uM by Western blot analysis; type: functional, cell-based
T-24 [49] = assay: Induction of apoptosis in human T24 cells assessed as late apoptotic cells at 8.26 uM by AnnexinV/propidium iodide staining based flow cytometry (reference value: 0%); type: functional
T-24 [50] = assay: Anticancer activity against human T24 cells xenografted in mouse assessed as tumor inhibition rate at 15 mg/kg measured at day 14 relative to control; type: functional; conditions: T-24, 336 h
T-24 [51] = assay: Induction of apoptosis in human T24 cells assessed as pycnosis by AO/EB staining based assay; type: functional, cell-based
T-24 [52] = assay: Induction of apoptosis in human T24 cells assessed as upregulation of cytosolic cytochrome-C expression at 2 to 8 uM by Western blot analysis; type: functional, cell-based

Q: Which results are given for `CNCCN1C(=O)c2cccc3cc([N+](=O)[O-])cc(c23)C1=O`?
A: Activity (T-24 [1]): Active; T/C (HepG2 [2]): 66.7%; Activity (T-24 [3]): Active; Activity (T-24 [4]): Active; inhibition in vivo at 15 mg/kg (HepG2 [5]): 60%; Activity (T-24 [6]): 0.1%; Activity (DNA [7]): Active; T/C (T-24 [8]): 38.4%; IC50 (SMMC-7721): 14 µM; IC50 (A549): 12.6 µM; Activity (T-24 [9]): Active; Activity (T-24 [10]): Dose-dependent effect; Activity (T-24 [11]): 0%; Activity (T-24 [12]): 82.11%; Activity (T-24 [13]): Active; IC50 (T-24 [14]): 4.13 µM; Activity (T-24 [15]): 7.71%; Activity (T-24 [16]): Active; Activity (T-24 [17]): 30.01%; Activity (T-24 [18]): 76.6%; Activity (T-24 [19]): Active; Activity (T-24 [20]): 0%; Activity (T-24 [21]): Active; Activity (T-24 [22]): 92.24%; Activity (DNA [23]): inactive; IC50 (L02): 18.7 µM; T/C (T-24 [24]): 62.9%; Activity (T-24 [25]): Active; Activity (DNA [26]): Active; Activity [27]: Non-Toxic; Activity (T-24 [28]): 0.05%; inhibition in vivo at 5 mg/kg (HepG2 [29]): 26.8%; inhibition [30]: Active; Activity [31]: Non-Toxic; Activity (T-24 [32]): 0%; T/C (HepG2 [33]): 38.6%; Activity (T-24 [34]): 50.17%; Activity (T-24 [35]): 5.4%; Activity (T-24 [36]): 19.81%; Activity (T-24 [37]): 0.9%; Activity [38]: Non-Toxic; Activity (T-24 [39]): 23.4%; Activity (T-24 [40]): 94.3%; Activity (T-24 [41]): 9.9%; Activity (T-24 [42]): 0.2%; IC50 (HepG2 [43]): 9.2 µM; Activity [44]: Non-Toxic; Activity (T-24 [45]): 98.8%; Activity (T-24 [46]): 7.99%; inhibition in vivo at 5 mg/kg (T-24 [47]): 30.1%; IC50 (SK-OV-3): 20.7 µM; Activity (T-24 [48]): Active; Activity (T-24 [49]): 0%; inhibition in vivo at 15 mg/kg (T-24 [50]): 58.7%; Activity (T-24 [51]): Active; Activity (T-24 [52]): Active
